# Patent US9951044B2, “Quinazoline derivatives and their use as DNA methyltransferase inhibitors” (PIERRE FABRE MEDICAMENT, priority 2013, dated 2018)
# Like-named read-outs stand apart in the source and are kept apart here.
# Legend:
# [1] = molecular target: T1, His-DNMT1 (182 kDa, human) (Homo sapiens, UniProt P26358); test: DNMT1 assay ([methyl-3H] SAM Flashplate); type: biochemical; details: for inhibition at 100 µM: read-out: DNMT1 (% of inhibition) 100 μM; for inhibition at 32 µM: read-out: DNMT1 (% of inhibition) 32 μM
# T1 construct: His; made in house
# Experimental: His-DNMT1 (182 kDa, human) was cloned, expressed and purified as described in Halby et al. (ChemBioChem 2012, 13, 157-65). The reaction was performed in a 10 μL total reaction volume in low volume NBS™ 384-well microplates (Corning), containing the tested compound (up to 1% DMSO), 1 μM of a SAM/[methyl-^3H] SAM (3 TBq/mmol, PerkinElmer) mix in a ratio of 3-to-1 (isotopic dilution 1*:3), 0.3 μM of biotinylated hemimethylated DNA duplex (5′-GATmCGCmCGATGmCGmCGAATmCGmCGAT mCGATGmCGAT-3′ and BIOT-5′-[…] ATC-3′), and 90 nM of DNMT1 in methylation buffer (20 mM HEPES pH 7.2, 1 mM EDTA, 50 mM KCl, 25 μg/mL BSA). The reaction was incubated at 37° C. for 2 hours. 8 μL are then transferred into a streptavidin 96-well scintillant coated Flashplate™ (PerkinElmer) containing 190 μL of 20 μM SAH in 50 mM Tris-HCl pH 7.4. The Flashplate™ was agitated at room temperature for 1 hour, washed three times with 200 μL of 0.05% Tween®-20 in 50 mM Tris-HCl pH 7.4, and read in 200 μL of 50 mM Tris-HCl pH 7.4 on TopCount NXT (PerkinElmer).
# [2] = molecular target: T2, human C-terminal DNMT3A (a.a. 623-908) (Homo sapiens, UniProt Q9Y6K1); test: DNMT3A assay (restriction-based fluorescence); type: biochemical; details: for inhibition at 10 µM: read-out: DNMT3A (% of inhibition) 10 μM; for inhibition at 32 µM: read-out: DNMT3A (% of inhibition) 32 μM; for EC50: concentration range in triplicates; for inhibition at 20 µM: compound at 20 μM
# T2 construct: The human C-terminal DNMT3A (a.a. 623-908); made in house
# Text: DNMT3A enzyme inhibition was adapted from the restriction-based fluorescence assay protocol described in Ceccaldi et al. (ChemBioChem 2011, 12, 1337-45). Briefly, a 5′-labelled biotin oligonucleotide is hybridized to its complementary strand labelled with 6-carboxyfluorescein at the 3′-end into a 384 well microplate (black Optiplates; Perkin Elmer) pre-coated with avidin. The duplex contains a unique CpG site overlapping with a restriction site of a methylation sensitive restriction enzyme. The human C-terminal DNMT3A (a.a. 623-908), produced as described in Gros et al. (Nucleic Acids Research 2013 Aug. 25), was added in each well (200 ng/well) and mixed with the chemical compounds at desired concentrations and freshly prepared AdoMet (20 μM final concentration) to start the reaction in a total volume of 50 μL. After 1 hour incubation at 37° C. each well were washed three times with PBS, Tween-20 0.05%, NaCl (500 mM) and three more times with PBST. Specific fluorescent signals were detected with the methylation-sensitive restriction enzyme HpyCH4IV (NEB) as described and measured on a Perkin Elmer Envision detector. The percentage of inhibition is reported. The formula used to calculate the percentage of inhibition is [(X−Y)/X]×100, where X is the signal determined in the absence of the inhibitor and Y is the signal obtained in the presence of the inhibitor. The concentration at which 50% of efficacy of inhibition is observed (EC50) was determined by analysis of a concentration range of the tested compound in triplicates. The non-linear regression fittings with sigmoidal dose-response (variable slope) were performed with GraphPad Prism 4.03 (GraphPad Software).
# T2 sequence (Q9Y6K1 627-912 limits assumed): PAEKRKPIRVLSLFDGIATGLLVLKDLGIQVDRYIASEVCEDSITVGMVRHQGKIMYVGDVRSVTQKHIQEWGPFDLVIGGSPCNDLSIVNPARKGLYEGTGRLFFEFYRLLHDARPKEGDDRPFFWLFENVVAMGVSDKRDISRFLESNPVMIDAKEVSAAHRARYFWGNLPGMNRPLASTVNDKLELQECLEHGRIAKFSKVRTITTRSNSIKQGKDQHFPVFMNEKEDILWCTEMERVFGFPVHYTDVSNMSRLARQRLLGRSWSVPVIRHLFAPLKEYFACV
# T1 sequence (P26358 whole entry): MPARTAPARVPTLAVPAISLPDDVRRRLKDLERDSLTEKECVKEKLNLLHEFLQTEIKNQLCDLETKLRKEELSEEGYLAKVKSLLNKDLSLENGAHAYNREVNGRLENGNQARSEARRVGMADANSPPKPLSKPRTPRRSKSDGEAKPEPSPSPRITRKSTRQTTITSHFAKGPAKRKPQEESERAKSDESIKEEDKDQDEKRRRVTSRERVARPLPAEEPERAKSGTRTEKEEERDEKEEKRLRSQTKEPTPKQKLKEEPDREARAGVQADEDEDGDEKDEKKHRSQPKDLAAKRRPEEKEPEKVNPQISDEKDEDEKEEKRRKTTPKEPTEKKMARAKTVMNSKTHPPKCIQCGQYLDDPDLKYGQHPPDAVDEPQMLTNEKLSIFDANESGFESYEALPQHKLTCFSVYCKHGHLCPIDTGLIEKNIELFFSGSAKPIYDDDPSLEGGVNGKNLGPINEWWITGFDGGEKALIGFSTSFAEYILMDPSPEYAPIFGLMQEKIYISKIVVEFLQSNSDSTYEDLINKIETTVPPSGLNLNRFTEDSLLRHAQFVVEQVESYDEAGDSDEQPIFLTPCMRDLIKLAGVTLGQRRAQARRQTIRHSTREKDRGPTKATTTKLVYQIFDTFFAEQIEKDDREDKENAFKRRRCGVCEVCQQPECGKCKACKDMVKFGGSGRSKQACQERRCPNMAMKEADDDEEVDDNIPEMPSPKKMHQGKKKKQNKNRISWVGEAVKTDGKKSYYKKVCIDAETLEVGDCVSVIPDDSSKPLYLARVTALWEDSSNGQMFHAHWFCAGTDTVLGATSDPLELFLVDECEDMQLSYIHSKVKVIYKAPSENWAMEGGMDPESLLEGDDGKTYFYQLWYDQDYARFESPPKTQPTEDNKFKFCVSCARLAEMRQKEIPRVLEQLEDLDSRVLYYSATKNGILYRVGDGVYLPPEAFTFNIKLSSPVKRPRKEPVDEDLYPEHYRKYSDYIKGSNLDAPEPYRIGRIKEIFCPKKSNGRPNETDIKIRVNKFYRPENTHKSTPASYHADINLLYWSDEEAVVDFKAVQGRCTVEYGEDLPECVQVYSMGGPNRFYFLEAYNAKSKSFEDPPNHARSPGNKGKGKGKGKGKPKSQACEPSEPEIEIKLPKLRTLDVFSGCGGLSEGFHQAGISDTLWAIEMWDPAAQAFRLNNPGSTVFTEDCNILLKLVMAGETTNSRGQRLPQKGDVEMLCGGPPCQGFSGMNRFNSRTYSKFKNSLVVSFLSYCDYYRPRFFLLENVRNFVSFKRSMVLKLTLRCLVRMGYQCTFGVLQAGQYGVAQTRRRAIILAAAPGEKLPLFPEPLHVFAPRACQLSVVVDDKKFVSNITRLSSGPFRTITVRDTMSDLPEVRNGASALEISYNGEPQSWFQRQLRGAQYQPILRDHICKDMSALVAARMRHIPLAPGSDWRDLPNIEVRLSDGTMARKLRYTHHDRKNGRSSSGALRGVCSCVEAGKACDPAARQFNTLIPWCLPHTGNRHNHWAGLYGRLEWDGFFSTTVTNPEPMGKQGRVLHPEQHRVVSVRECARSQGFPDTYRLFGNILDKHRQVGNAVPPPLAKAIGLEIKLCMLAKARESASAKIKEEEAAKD
inhibition at 100 µM ([1]; compound at 100 μM),inhibition at 10 µM ([2]; compound at 10 μM),inhibition at 32 µM ([2]; compound at 32 μM),EC50 [2],inhibition at 32 µM ([1]; compound at 32 μM),Structure (SMILES),further results
97%,82%,91%,2.7 µM,,"Clc1cccc(CCNc2ncnc3cc(OCC4CCN(CCNc5ccnc6ccccc56)CC4)ccc23)c1 [AA, 4-(2-(3-chlorophenyl)ethylamino)-7-((1-(2-(quinolin-4-ylamino)ethyl)piperidin-4-yl)methoxy)quinazoline]",
97%,,100%,,42%,"Clc1ccccc1CCNc1ncnc2cc(OCC3CCN(CCNc4ccnc5ccccc45)CC3)ccc12 [AB, 4-(2-(2-chlorophenyl)ethylamino)-7-((1-(2-(quinolin-4-ylamino)ethyl)piperidin-4-yl)methoxy)quinazoline]",
97%,88%,100%,1.9 µM,75%,"Clc1ccc(CCNc2ncnc3cc(OCC4CCN(CCNc5ccnc6ccccc56)CC4)ccc23)cc1 [AC, 4-(2-(4-chlorophenyl)ethylamino)-7-((1-(2-(quinolin-4-ylamino)ethyl)piperidin-4-yl)methoxy)quinazoline]",
100%,,93%,,59%,"NS(=O)(=O)c1ccc(CCNc2ncnc3cc(OCC4CCN(CCNc5ccnc6ccccc56)CC4)ccc23)cc1 [AD, 4-(2-(4-sulfonamidophenyl)ethylamino)-7-((1-(2-(quinolin-4-ylamino)ethyl)piperidin-4-yl)methoxy)quinazoline]",
74%,61%,72%,1.1 µM,54%,"O=[N+]([O-])c1ccc(CCNc2ncnc3cc(OCC4CCN(CCNc5ccnc6ccccc56)CC4)ccc23)cc1 [AE, 4-(2-(4-nitrophenyl)ethylamino)-7-((1-(2-(quinolin-4-ylamino)ethyl)piperidin-4-yl)methoxy)quinazoline]",
,53%,83%,,,"CC(C)c1ccc(CCNc2ncnc3cc(OCC4CCN(CCNc5ccnc6ccccc56)CC4)ccc23)cc1 [AF, 4-(2-(4-isopropylphenyl)ethylamino)-7-((1-(2-(quinolin-4-ylamino)ethyl)piperidin-4-yl)methoxy)quinazoline]",
59%,82%,100%,,77%,"COc1ccc(CCNc2ncnc3cc(OCC4CCN(CCNc5ccnc6ccccc56)CC4)ccc23)cc1 [AG, 4-(2-(4-methoxyphenyl)ethylamino)-7-((1-(2-(quinolin-4-ylamino)ethyl)piperidin-4-yl)methoxy)quinazoline]",
97%,68%,96%,,59%,"Nc1ccc(CCNc2ncnc3cc(OCC4CCN(CCNc5ccnc6ccccc56)CC4)ccc23)cc1 [AH, 4-(2-(4-aminophenyl)ethylamino)-7-((1-(2-(quinolin-4-ylamino)ethyl)piperidin-4-yl)methoxy)quinazoline]",
99%,86%,99%,1 µM,99%,c1ccc2c(NCCNc3ncnc4cc(OCC5CCN(CCNc6ccnc7ccccc67)CC5)ccc34)ccnc2c1 [AI],
93%,76%,5%,,93%,"c1ccc(NCCNc2ncnc3cc(OCC4CCN(CCNc5ccnc6ccccc56)CC4)ccc23)cc1 [AK, 4-(2-(phenylamino)ethylamino)-7-((1-(2-(quinolin-4-ylamino)ethyl)piperidin-4-yl)methoxy)quinazoline]",
81%,72%,93%,8 µM,81%,c1ccc(CN2CCC(Nc3ncnc4cc(OCC5CCN(CCNc6ccnc7ccccc67)CC5)ccc34)CC2)cc1 [AL],
,,,,,"Clc1ccc2c(NCCN3CCC(COc4ccc5c(NCCCc6ccccc6)ncnc5c4)CC3)ccnc2c1 [AO, 4-((3-phenylpropyl)amino)-7-((1-(2-(7-chloroquinolin-4-ylamino)ethyl)piperidin-4-yl)methoxy)quinazoline]",inhibition at 100 µM [1]: 79%; inhibition at 10 µM [2]: 70%; inhibition at 32 µM [2]: 62%
,,,,,"COc1cc2nccc(NCCN3CCC(COc4ccc5c(NCCCc6ccccc6)ncnc5c4)CC3)c2cc1OC [AQ, 4-((3-phenylpropyl)amino)-7-((1-(2-(6,7-dimethoxyquinolin-4-ylamino)ethyl)piperidin-4-yl)methoxy)quinazoline]",inhibition at 32 µM [1]: 61%; inhibition at 100 µM [1]: 100%; inhibition at 10 µM [2]: 95%; inhibition at 32 µM [2]: 95%
,,,,,"c1ccc(CCCNc2ncnc3cc(OCC4CCN(CCNc5ccc6ncccc6c5)CC4)ccc23)cc1 [AS, 4-((3-phenylpropyl)amino)-7-((1-(2-(quinolin-6-ylamino)ethyl)piperidin-4-yl)methoxy)quinazoline]",inhibition at 10 µM [2]: 60%; inhibition at 32 µM [2]: 60%
100%,,81%,,,"c1ccc(CCCNc2ncnc3cc(OCC4CCN(CCNc5ccnc6ccccc56)C4)ccc23)cc1 (centres unmarked) [Compound AM, 4-((3-phenylpropyl)amino)-7-((1-(2-(quinolin-4-ylamino)ethyl)pyrrolidin-3-yl)methoxy)quinazoline]",
,,65%,,,Nc1ccc(NCCN2CCC(COc3ccc4c(NCCCc5ccccc5)ncnc4c3)CC2)cc1 [Compound AN],
97%,60%,85%,10 µM,,c1ccc(CCCNc2ncnc3cc(OCCCNCCCNc4ccnc5ccccc45)ccc23)cc1 [Compound A],inhibition at 20 µM [2]: 76%
86%,,,,,c1ccc(CCCNc2ncnc3cc(OCCCNCCCCNc4ccnc5ccccc45)ccc23)cc1 [Compound B],inhibition at 20 µM [2]: 67%
,,51%,,,"O=CN(CCCNc1ccnc2ccccc12)CCCOc1ccc2c(NCCCc3ccccc3)ncnc2c1 [Compound E, N-(3-((4-((3-phenylpropyl)amino)quinazolin-7-yl)oxy)propyl)-N-(3-(quinolin-4-ylamino)propyl)formamide]",inhibition at 20 µM [2]: 27%
90%,59%,87%,10 µM,,"c1ccc(CCCNc2ncnc3cc(OCCCNCCNc4ccnc5ccccc45)ccc23)cc1 [Compound F, 7-(3-((2-(quinolin-4-ylamino)ethyl)amino)propyloxy)-4-((3-phenylpropyl)amino)quinazoline]",inhibition at 20 µM [2]: 76%
,10%,44%,,,"COCn1ccc(NCCN2CCC(COc3ccc4c(NCCCc5ccccc5)ncnc4c3)CC2)nc1=O [Compound K, 1-(methoxymethyl)-N^4-(2-(4-(((4-((3-phenylpropyl)amino)quinazolin-7-yl)oxy)methyl)piperidin-1-yl)ethyl)cytosine]",inhibition at 20 µM [2]: 40%

Structure (SMILES),inhibition at 100 µM ([1]; compound at 100 μM),inhibition at 10 µM ([2]; compound at 10 μM),inhibition at 32 µM ([2]; compound at 32 μM),EC50 [2],inhibition at 32 µM ([1]; compound at 32 μM),further results
"COc1ccc2c(NCCN3CCC(COc4ccc5c(NCCCc6ccccc6)ncnc5c4)CC3)ccnc2c1 [AP, 4-((3-phenylpropyl)amino)-7-((1-(2-(7-methoxyquinolin-4-ylamino)ethyl)piperidin-4-yl)methoxy)quinazoline]",,,,2.6 µM,,inhibition at 100 µM [1]: 90%; inhibition at 10 µM [2]: 70%; inhibition at 32 µM [2]: 80%
"CN(CCN1CCC(COc2ccc3c(NCCCc4ccccc4)ncnc3c2)CC1)c1ccnc2ccccc12 [AR, 4-((3-phenylpropyl)amino)-7-((1-(2-(methyl(quinolin-4-yl)amino)ethyl)piperidin-4-yl)methoxy)quinazoline]",,,,4.7 µM,,inhibition at 10 µM [2]: 66%; inhibition at 32 µM [2]: 66%
